# Experimental data: US20250345446A1 (Draupnir Bio ApS, priority 2022, published 2025)
# *: point of attachment. Biotin = O=C1N[C@H]2[C@H](CS[C@H]2CCCCC(=O)*)N1
# B1: Biotin-GGSGGGGSGGGGSGGFQLL-OH (peptide)
# peptide: Biotin-GGSGGGGSGGGGSGGFQLL-OH
# SMILES: CC(C)C[C@H](NC(=O)[C@H](CC(C)C)NC(=O)[C@H](CCC(N)=O)NC(=O)[C@H](Cc1ccccc1)NC(=O)CNC(=O)CNC(=O)[C@H](CO)NC(=O)CNC(=O)CNC(=O)CNC(=O)CNC(=O)[C@H](CO)NC(=O)CNC(=O)CNC(=O)CNC(=O)CNC(=O)[C@H](CO)NC(=O)CNC(=O)CNC(=O)CCCC[C@@H]1SC[C@@H]2NC(=O)N[C@@H]21)C(=O)O
# B2: Biotin-GGSGGGGSGRQLL-OH (peptide)
# peptide: Biotin-GGSGGGGSGRQLL-OH
# SMILES: CC(C)C[C@H](NC(=O)[C@H](CC(C)C)NC(=O)[C@H](CCC(N)=O)NC(=O)[C@H](CCCNC(=N)N)NC(=O)CNC(=O)[C@H](CO)NC(=O)CNC(=O)CNC(=O)CNC(=O)CNC(=O)[C@H](CO)NC(=O)CNC(=O)CNC(=O)CCCC[C@@H]1SC[C@@H]2NC(=O)N[C@@H]21)C(=O)O
# B3: Biotin-GGSGGGGSGFQLL-OH (peptide)
# peptide: Biotin-GGSGGGGSGFQLL-OH
# SMILES: CC(C)C[C@H](NC(=O)[C@H](CC(C)C)NC(=O)[C@H](CCC(N)=O)NC(=O)[C@H](Cc1ccccc1)NC(=O)CNC(=O)[C@H](CO)NC(=O)CNC(=O)CNC(=O)CNC(=O)CNC(=O)[C@H](CO)NC(=O)CNC(=O)CNC(=O)CCCC[C@@H]1SC[C@@H]2NC(=O)N[C@@H]21)C(=O)O
# How the values were obtained:
# [1] = molecular target: T1, soluble ectodomain of sortilin-6his (Homo sapiens, UniProt Q99523, V650M); test: MST binding to soluble ectodomain of sortilin-6his
# T1 construct: the soluble ectodomain of sortilin-6his is measured by microscale thermophoresis (MST)
# T1 sequence (Q99523 with tags, fused parts or gaps V650M): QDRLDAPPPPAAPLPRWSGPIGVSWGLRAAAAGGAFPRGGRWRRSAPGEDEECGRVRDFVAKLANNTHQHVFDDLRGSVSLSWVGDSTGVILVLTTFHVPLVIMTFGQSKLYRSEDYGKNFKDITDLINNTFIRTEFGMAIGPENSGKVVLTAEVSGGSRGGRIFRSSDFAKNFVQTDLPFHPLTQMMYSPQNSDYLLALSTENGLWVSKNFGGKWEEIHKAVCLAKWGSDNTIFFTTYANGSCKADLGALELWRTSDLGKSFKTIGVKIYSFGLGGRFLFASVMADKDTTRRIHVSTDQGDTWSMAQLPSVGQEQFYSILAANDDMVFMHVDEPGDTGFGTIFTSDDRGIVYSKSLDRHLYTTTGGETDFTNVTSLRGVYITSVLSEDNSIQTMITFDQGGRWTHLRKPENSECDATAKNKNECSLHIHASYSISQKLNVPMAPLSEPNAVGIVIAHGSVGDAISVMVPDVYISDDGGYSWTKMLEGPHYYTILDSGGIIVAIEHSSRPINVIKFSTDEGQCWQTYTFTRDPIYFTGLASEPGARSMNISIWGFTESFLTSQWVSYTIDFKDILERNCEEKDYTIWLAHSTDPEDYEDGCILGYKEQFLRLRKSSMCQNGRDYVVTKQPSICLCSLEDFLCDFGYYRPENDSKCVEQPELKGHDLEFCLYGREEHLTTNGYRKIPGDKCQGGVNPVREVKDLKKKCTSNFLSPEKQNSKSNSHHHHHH
# [2] = tested on: HEK293 cells expressing full length sortilin receptor; test: Cellular uptake of AlexaFluor488-anti-DNP antibody; assay type: cell-based; conditions: for AUC score, target internalization: Table 7, AlexaFluor488-anti-DNP antibody (100 nM), 3 h, DNP warhead compounds
# Excerpt: In this example, the small molecule degraders consist of a sortilin binder linked to warhead DNP to target anti-DNP antibodies (BF001 to BF016)
# Cellular uptake of AlexaFluor488-anti-DNP antibody (Thermo Fisher) was investigated in HEK293 cells expressing full length sortilin receptor in a methodology analogous to example 3.
# Sortilin-6His [3] = molecular target: T2, Sortilin-6His (Homo sapiens (Human), UniProt Q99523 78-755); test: MST on labelled sortilin-6his ectodomain; KD score: ++ <100 nM, + 100-2000 nM
# T2 construct: In MST it was labelled non-covalently with RED-tris-NTA; also called soluble ectodomain of sortilin-6his; fluorescent sortilin-6his
# T2 sequence (Q99523 78-755 V650M limits assumed): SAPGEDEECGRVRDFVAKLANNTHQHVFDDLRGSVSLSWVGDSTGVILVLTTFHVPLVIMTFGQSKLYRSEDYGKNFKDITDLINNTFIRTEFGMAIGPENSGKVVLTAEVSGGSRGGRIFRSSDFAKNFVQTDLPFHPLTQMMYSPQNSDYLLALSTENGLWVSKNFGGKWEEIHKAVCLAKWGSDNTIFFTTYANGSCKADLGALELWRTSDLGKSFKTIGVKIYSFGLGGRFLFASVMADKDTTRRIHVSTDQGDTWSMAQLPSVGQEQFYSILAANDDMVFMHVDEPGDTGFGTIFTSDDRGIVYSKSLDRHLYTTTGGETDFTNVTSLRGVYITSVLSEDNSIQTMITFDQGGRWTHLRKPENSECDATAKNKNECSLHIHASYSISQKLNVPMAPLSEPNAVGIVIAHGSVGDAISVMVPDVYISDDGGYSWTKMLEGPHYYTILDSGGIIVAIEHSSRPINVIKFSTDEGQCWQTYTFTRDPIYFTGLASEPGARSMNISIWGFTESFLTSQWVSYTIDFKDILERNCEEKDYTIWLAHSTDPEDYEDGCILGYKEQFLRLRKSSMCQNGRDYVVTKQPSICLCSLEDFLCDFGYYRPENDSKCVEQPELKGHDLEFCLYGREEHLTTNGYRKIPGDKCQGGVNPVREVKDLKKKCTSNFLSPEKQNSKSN
# Sortilin-6His [4] = molecular target: T2, Sortilin-6His; test: TR-FRET (HTRF) ternary complex streptavidin-d2 / biotin-peptide / sortilin-6His; AUC score: + <5000, ++ >5000
Molecule,Kd [1],"cell associated FI signal, response to concentration series (in words) ([2]; 3 h incubation, 1.9 nM to 2 μM, AlexaFluor488-anti-DNP antibody 100 nM)","AUC score, target internalization [2]",KD (Sortilin-6His [3]),AUC of TR-FRET (HTRF ratio vs compound concentration) for ternary complex formation (Sortilin-6His [4])
"CC(C)(C)CC[C@H](NC(=O)c1ccc(Oc2cccc(C(=O)NCCOCCOCCOCCOCCOCCOCCOCCNc3ccc([N+](=O)[O-])cc3[N+](=O)[O-])c2)nc1)C(=O)O [BF006, (2S)-2-[[6-[3-[2-[2-[2-[2-[2-[2-[2-[2-(2,4-dinitroanilino)ethoxy]ethoxy]ethoxy]ethoxy]ethoxy]ethoxy]ethoxy]ethylcarbamoyl]phenoxy]pyridine-3-carbonyl]amino]-5,5-dimethyl-hexanoic acid]",1 to 10 nM,bell-shaped response,+ (AUC < 10.000),,
"CC(C)(C)CC[C@H](NC(=O)c1ccc(Oc2cccc(C(=O)NCCOCCOCCOCCOCCOCCOCCNc3ccc([N+](=O)[O-])cc3[N+](=O)[O-])c2)nc1)C(=O)O [BF008, (2S)-2-[[6-[3-[2-[2-[2-[2-[2-[2-[2-(2,4-dinitroanilino)ethoxy]ethoxy]ethoxy]ethoxy]ethoxy]ethoxy]ethylcarbamoyl]phenoxy]pyridine-3-carbonyl]amino]-5,5-dimethyl-hexanoic acid]",1 to 10 nM,,+ (AUC < 10.000),,
"CC(C)(C)CC[C@H](NC(=O)c1ccc(Oc2cccc3c(C(=O)NCCCNC(=O)CCOCCOCCOCCOCCNc4ccc([N+](=O)[O-])cc4[N+](=O)[O-])cccc23)nc1)C(=O)O [BF010, (2S)-2-[[6-[[5-[3-[3-[2-[2-[2-[2-(2,4-dinitroanilino)ethoxy]ethoxy]ethoxy]ethoxy]propanoylamino]propylcarbamoyl]-1-naphthyl]oxy]pyridine-3-carbonyl]amino]-5,5-dimethyl-hexanoic acid]",1 to 10 nM,,++ (AUC > 10.000),,
"CC(C)(C)CC[C@H](NC(=O)c1ccc(Oc2cccc(OCCOCCOCCOCCOCCOCCOCCNc3ccc([N+](=O)[O-])cc3[N+](=O)[O-])c2)nc1)C(=O)O [BF014, (2S)-2-[[6-[3-[2-[2-[2-[2-[2-[2-[2-(2,4-dinitroanilino)ethoxy]ethoxy]ethoxy]ethoxy]ethoxy]ethoxy]ethoxy]phenoxy]pyridine-3-carbonyl]amino]-5,5-dimethyl-hexanoic acid]",10 to 250 nM,,++ (AUC > 10.000),,
B1,,,,100 to 2000 nM,> 5000 auc
B2,,,,< 100 nM,< 5000 auc
B3,,,,< 100 nM,< 5000 auc
